Reference: patent publication US10076519B2 (CYTOKINETICS, INC., priority 2010, dated 2018)

tested on: rabbit skeletal myofibrils (fast skeletal myofibrils); test: Activation of fast skeletal myofibrils (PUMA assay, PK/LDH-coupled ATPase at pCa25); type: biochemical; conditions: median AC1.4 class, procedure of Example 39
Procedure: Preparation of Fast Skeletal Myofibrils.
Rabbit skeletal myofibrils were prepared based upon the method of Herrmann et al. (Biochem. 32(28):7255-7263(1993). Myofibrils were prepared from rabbit psoas muscle purchased from Pel-Freez Biologicals (Arkansas) within 2 days of ordering, stored on ice. Minced muscle was homogenized in 10 volumes of ice-cold “standard” buffer (50 mM Tris, pH 7.4, 0.1M potassium acetate, 5 mM KCl, 2 mM DTT, 0.2 mM PMSF, 10 μM leupeptin, 5 μM pepstatin, and 0.5 mM sodium azide) containing 5 mM EDTA and 0.5% Triton X-100 using an Omni-Macro homogenizer. Myofibrils were recovered by low speed centrifugation (3000 rpm for 10 minutes) and washed 2 times in the Triton X-100 containing buffer to ensure removal of cellular membrane. Following the Triton washes, myofibrils were washed 3 times in “standard” buffer containing 2 mM magnesium acetate. A final wash in assay buffer (12 mM PIPES, pH 6.8, 60 mM KCl, 1 mM DTT) was performed and brought to 10% sucrose for flash freezing in liquid nitrogen and storage at −80° C.
Activation of Fast Skeletal Myofibrils.
Fast fiber activators were identified by measuring the enzymatic activity of muscle myofibril preparations using the proprietary PUMA™ (see, e.g., U.S. Pat. Nos. 6,410,254, 6,743,599, 7,202,051, and 7,378,254) assay system. Myofibril preparations consisted of rabbit skeletal muscle (approximately 90% fast fibers) that had been mechanically homogenized and washed with a detergent (triton X-100) to remove cellular membranes. This preparation retained all of the sarcomeric components in a native conformation and the enzymatic activity was still regulated by calcium. Compounds were tested using a myofibril suspension and a level of calcium sufficient to increase enzymatic activity of the myofibrils to 25% of their maximal rate (termed pCa25). Enzymatic activity was tracked via a pyruvate kinase and lactate dehydrogenase-coupled enzyme system. This assay regenerates myosin-produced ADP into ATP by oxidizing NADH, producing an absorbance change at 340 nm. The buffering system was 12 mM Pipes, 2 mM MgCl2, 1 mM DTT at pH 6.8 (PM12 buffer).
Using procedures similar to those described herein, utilizing reagents and intermediates commercially available (e.g., Sigma-Aldrich, St. Louis, Mo.) or readily synthesized by one of skill in the art, the compounds in Table 2 were synthesized, characterized and tested. AC1.4 values were determined according to the procedure described in Example 39, and the reported median AC1.4 values are as follows: A=<1 uM; B=1-10 uM; C=10-20 uM; D=>20 uM.

Structure (SMILES) | Mean AC1.4
CC(=O)c1ccc(NCC2(c3ncccc3F)CCC2)nn1 | D (D=>20 uM)
NC(=O)c1cnn(Cc2ccc(NC3(c4ncccc4F)CCC3)nn2)c1 | D (D=>20 uM)
CC(=O)N1CC(c2ccc(NCC3(c4ncccc4F)CCC3)nn2)C1 | D (D=>20 uM)
CC(C)(O)C(N)c1ccc(-c2ccc(NCC3(c4ncccc4F)CCC3)nn2)cc1 (centres unmarked) | D (D=>20 uM)
O=C(O)C1CN=C(c2ccc(NCC3(c4ncccc4F)CCC3)nn2)N1 (centres unmarked) | D (D=>20 uM)
CC(C)(O)c1ccc(NCC2(c3ncccc3F)CCC2)nn1 | D (D=>20 uM)
NC(=O)C(N)c1cccc(-c2ccc(NCC3(c4ncccc4F)CCC3)nn2)c1 (centres unmarked) | C (C=10-20 uM)
NC(=O)c1cc(-c2ccc(NCC3(c4ncccc4F)CCC3)nn2)no1 | A (A=<1 uM)
Cn1nc(-c2ccc(NCC3(c4ncccc4F)CCC3)nn2)cc1C(N)=O | B (B=1-10 uM)
NC(=O)c1nc(-c2ccc(NCC3(c4ncccc4F)CCC3)nn2)c[nH]1 | C (C=10-20 uM)
Cn1cc(-c2ccc(NCC3(c4ncccc4F)CCC3)nn2)nc1C(N)=O | D (D=>20 uM)
COc1cc(-c2ccc(NCC3(c4ncccc4F)CCC3)nn2)ccc1C(N)=O | B (B=1-10 uM)
COc1cc(-c2ccc(NCC3(c4ncccc4F)CCC3)nn2)ccc1C(=O)O | D (D=>20 uM)
O=C1Cc2cc(-c3ccc(NCC4(c5ncccc5F)CCC4)nn3)ccc2N1 | B (B=1-10 uM)
NC(=O)c1ncc(-c2ccc(NCC3(c4ncccc4F)CCC3)nn2)o1 | B (B=1-10 uM)
NC(=O)c1cc(-c2ccc(NCC3(c4ncccc4F)CCC3)nn2)on1 | B (B=1-10 uM)

Structure (SMILES) | Mean AC1.4
O=C(O)c1cc(-c2ccc(NCC3(c4ncccc4F)CCC3)nn2)on1 | D (D=>20 uM)
NC(=O)c1noc(-c2ccc(NCC3(c4ncccc4F)CCC3)nn2)n1 | B (B=1-10 uM)
COc1ccc(-c2ccc(NCC3(c4ncccc4F)CCC3)nn2)cc1C(=O)O | D (D=>20 uM)
CNC(=O)Nc1cccc(-c2ccc(NCC3(c4ncccc4F)CCC3)nn2)c1 | A (A=<1 uM)
CC(=O)Nc1ccc(-c2ccc(NCC3(c4ncccc4F)CCC3)nn2)cc1 | A (A=<1 uM)
OCc1ncccc1-c1ccc(NCC2(c3ncccc3F)CCC2)nn1 | C (C=10-20 uM)
Fc1cccnc1C1(CNc2ccc(-c3ccc(NCC4(c5ncccc5F)CCC4)nn3)nn2)CCC1 | D (D=>20 uM)
NC(=O)NC1CC(c2ccc(NCC3(c4ncccc4F)CCC3)nn2)C1 (centres unmarked) | C (C=10-20 uM)
NC(=O)Nc1ccc(-c2ccc(NCC3(c4ncccc4F)CCC3)nn2)cc1 | A (A=<1 uM)
NC(=O)NC1CC=C(c2ccc(NCC3(c4ncccc4F)CCC3)nn2)CC1 (centres unmarked) | B (B=1-10 uM)
NC(=O)Nc1ncc(-c2ccc(NCC3(c4ncccc4F)CCC3)nn2)cn1 | D (D=>20 uM)
NC(=O)Nc1n[nH]c2ccc(-c3ccc(NCC4(c5ncccc5F)CCC4)nn3)cc12 | A (A=<1 uM)
CCOC(=O)c1cc(-c2ccc(NCC3(c4ncccc4F)CCC3)nn2)on1 | D (D=>20 uM)
COC(=O)c1coc(-c2ccc(NCC3(c4ncccc4F)CCC3)nn2)n1 | D (D=>20 uM)
COC(=O)C1CN=C(c2ccc(NCC3(c4ncccc4F)CCC3)nn2)N1 (centres unmarked) | D (D=>20 uM)
COC(=O)c1ncccc1-c1ccc(NCC2(c3ncccc3F)CCC2)nn1 | C (C=10-20 uM)

Now from value to compound:

Mean AC1.4 | Structure (SMILES)
D (D=>20 uM) | CC(C)(O)c1ncccc1-c1ccc(NCC2(c3ncccc3F)CCC2)nn1
D (D=>20 uM) | NC(=O)c1coc(-c2ccc(NCC3(c4ncccc4F)CCC3)nn2)n1
B (B=1-10 uM) | NC(=O)c1cnc(-c2ccc(NCC3(c4ncccc4F)CCC3)nn2)o1
D (D=>20 uM) | NC(=O)c1csc(-c2ccc(NCC3(c4ncccc4F)CCC3)nn2)n1
D (D=>20 uM) | NC(=O)C1CN=C(c2ccc(NCC3(c4ncccc4F)CCC3)nn2)N1 (centres unmarked)
C (C=10-20 uM) | NC(=O)CNc1ncc(-c2ccc(NCC3(c4ncccc4F)CCC3)nn2)cn1
B (B=1-10 uM) | NC(=O)c1cccc(-c2ccc(NCC3(c4ncccc4F)CC(F)(F)C3)nn2)c1
A (A=<1 uM) | NC(=O)c1cccc(-c2ccc(NC3(c4ccc(F)cc4)CCC3)nn2)c1
B (B=1-10 uM) | NC(=O)c1cc(-c2ccc(NCC3(c4ncccc4F)CCC3)nn2)n[nH]1
C (C=10-20 uM) | NC(=O)c1ncccc1-c1ccc(NCC2(c3ncccc3F)CCC2)nn1
C (C=10-20 uM) | N#Cc1ncccc1-c1ccc(NCC2(c3ncccc3F)CCC2)nn1
D (D=>20 uM) | NC(=O)N1CC(c2ccc(NCC3(c4ncccc4F)CCC3)nn2)C1
B (B=1-10 uM) | NC(=O)c1ccc(-c2ccc(NCC3(c4ncccc4F)CCC3)nn2)cc1O
A (A=<1 uM) | NC(=O)c1ccc(F)c(-c2ccc(NC3(c4ncccc4F)CCCC3)nn2)c1
A (A=<1 uM) | O=c1[nH][nH]c2ccc(-c3ccc(NCC4(c5ncccc5F)CCC4)nn3)cc12
B (B=1-10 uM) | COc1ccc(-c2ccc(NCC3(c4ncccc4F)CCC3)nn2)cc1C(N)=O
C (C=10-20 uM) | CC(C)n1[nH]c(=O)c2cc(-c3ccc(NCC4(c5ncccc5F)CCC4)nn3)ccc21
B (B=1-10 uM) | CC(C)n1[nH]c2ccc(-c3ccc(NCC4(c5ncccc5F)CCC4)nn3)cc2c1=O

Mean AC1.4 | Structure (SMILES)
A (A=<1 uM) | NC(=O)c1cc(-c2ccc(NCC3(c4ncccc4F)CCC3)nn2)ccc1O
B (B=1-10 uM) | Cn1nc(C(N)=O)cc1-c1ccc(NCC2(c3ncccc3F)CCC2)nn1
A (A=<1 uM) | Oc1ccc(-c2ccc(NCC3(c4ncccc4F)CCC3)nn2)nc1
B (B=1-10 uM) | O=C1Cc2ccc(-c3ccc(NCC4(c5ncccc5F)CCC4)nn3)cc2N1
A (A=<1 uM) | CNC(=O)Nc1ccc(-c2ccc(NCC3(c4ncccc4F)CCC3)nn2)cc1
C (C=10-20 uM) | CC(=O)Nc1ncc(-c2ccc(NCC3(c4ncccc4F)CCC3)nn2)cn1
D (D=>20 uM) | COC(=O)Nc1ncc(-c2ccc(NCC3(c4ncccc4F)CCC3)nn2)cn1
D (D=>20 uM) | NC(=O)[C@H]1C[C@@H]1c1ccc(NCC2(c3ncccc3F)CCC2)nn1
D (D=>20 uM) | NC(=O)[C@@H]1C[C@@H]1c1ccc(NCC2(c3ncccc3F)CCC2)nn1
D (D=>20 uM) | CS(=O)(=O)Nc1ncc(-c2ccc(NCC3(c4ncccc4F)CCC3)nn2)cn1
B (B=1-10 uM) | CC(C)(Nc1ccc(-c2ccc(N)nc2)nn1)c1ccccc1
B (B=1-10 uM) | NC(=O)N[C@H]1C[C@@H](c2ccc(NCC3(c4ncccc4F)CCC3)nn2)C1
B (B=1-10 uM) | NC(=O)Nc1ccc(-c2ccc(NCC3(c4ncccc4F)CCC3)nn2)cn1
D (D=>20 uM) | CCOC(=O)C(C(=O)OCC)c1ccc(NCC2(c3ncccc3F)CCC2)nn1
D (D=>20 uM) | CCOC(=O)c1ccc(NCC2(c3ncccc3F)CCC2)nn1
D (D=>20 uM) | COC(=O)N1CC(c2ccc(NCC3(c4ncccc4F)CCC3)nn2)C1
D (D=>20 uM) | O=C(OCc1ccccc1)N1CC(c2ccc(NCC3(c4ncccc4F)CCC3)nn2)C1
D (D=>20 uM) | CC(C)(C)OC(=O)N1CCN(c2ncc(-c3ccc(NCC4(c5ncccc5F)CCC4)nn3)cn2)CC1
